Common to all, as to type: cell-based
For data set [1], the system named is K-RAS mutation-positive colon carcinoma cell line M7609. In words: Total cell count after siRNA transfection (hemocytometer). Conditions: after culturing for 4 days, versus no suppression (FIG. 1b). The protocol:
K-RAS mutation-positive colon carcinoma cell line M7609 was cultured in 10% fetal bovine serum (FBS)-containing RPMI-1640 medium at 37° C. under an atmosphere containing 5% CO2. Furthermore, 100 U/mL penicillin and 100 μg/mL streptomycin were added as antibiotics to the medium.
On the day before transfection, M7609 cells were plated on a 100 mm plastic tissue culture dish using 10% FBS-containing RPMI-1640 medium containing no antibiotic so as to give 1×10^6 cells/10 mL. 600 pmol of GST-π siRNA (SEQ ID No: 1: […], siRNA ID#2385, Ambion) was added to 1 mL of Opti-MEM I Reduced Serum Medium (GIBCO) and mixed gently. […] On the 1st, 2nd, 3rd, and 4th days after transfection with GST-π siRNA, the number of cells was counted, and knockdown of GST-π was examined. Knockdown of GST-π was analyzed by a western blot method as described below.
Western blot analysis of GST-π knockdown was carried out using cells harvested at above-mentioned each point of time after transfection with GST-π siRNA. […] The cell extract thus obtained was subjected to quantitative protein analysis using a Micro BCA Protein Assay Kit (Thermo SCIENTIFIC) (GST-π siRNA transfectant: 4.35 μg/μL, Scramble siRNA transfectant: 4.56 μg/μL). […] A reaction with a chemiluminescent substrate was then carried out at room temperature for 1 min., and then this chemiluminescence was detected using an X-ray film. […]

The test system of another data set is LC3. Briefly: Autophagy induction by LC3 western blotting. Particulars: M7609 cells, western blot with anti-LC3 antibody (FIG. 8). How it is done: Induction of autophagy in GST-π knockdown cells was further analyzed by a western blot analysis of LC3. GST-π knockdown cells obtained by the procedure of Example 1 (2) were plated on a cover slip placed in a 35 mm plastic tissue culture dish so as to give 1×10^5 cells/2 mL. After incubating for a predetermined time, a cell extract was collected and subjected to a western blot analysis. A reaction with a transfer membrane was carried out at 4° C. for 16 hours using anti-LC3B antibody (SIGMA) as a primary antibody. Detection of LC3 molecules was carried out using a chemoluminescent reagent after a reaction with HRP-labeled secondary antibody. Whether or not autophagy was induced was evaluated by a shift of LC3 from type I (18 kDa) to type II (16 kDa).
In general terms: Immunoblotting shows a protein as a band on a membrane.

In the next data set the test system is M7609 cells. In words: Apoptosis induction by TUNEL staining. The protocol:
A TUNEL method was carried out as follows using an In Situ Cell Death Detection Kit, POD (Roche). GST-π knockdown cells obtained by the procedure of Example 1 (2) were plated on a cover slip placed in a 35 mm plastic tissue culture dish so as to give 1×10^5 cells/2 mL. After the medium was aspirated, 4% paraformaldehyde in PBS was added, and incubation was carried out at room temperature for 60 min., thus fixing the cells. In order to carry out blocking of endogenous peroxidase, incubation was carried out with 3% H2O2 in methanol at room temperature for 10 min. Subsequently, permeabilization of cells was carried out by treating with 0.1% Triton X-100 in 0.1% sodium citrate on ice for 2 min. The TUNEL reaction was carried out in a humidity chamber at 37° C. for 60 min. Detection of TUNEL-positive cells was carried out by a coloration reaction using a DAB substrate after reacting a peroxidase labeled anti-fluorescein antibody at 37° C. for 30 min. Counter staining was carried out using hematoxylin, stained cells were examined under an optical microscope, and TUNEL-positive cells were evaluated as apoptotic cells. Washing between the operations was carried out by rinsing with PBS.

With “GST-π siRNA: GST-π siRNA (SEQ ID No: 1: GGGAGGCAAGACCUUCAUUTT, siRNA ID#2385, Ambion) (chemistry not given here)”, the number of cells result in data set [1] is reported as “markedly less”. Also, the “expression of type II LC3” value with LC3 is on record as “markedly increased”. Besides, in the data set with M7609 cells (1 to 4 days after transfection (FIG. 10)), the “proportion of apoptosis-positive cells (TUNEL-positive per 1000 cells)” value is “gradually but continuously increased up to 4th day”. In addition, the “TUNEL-positive cells (apoptosis)” value with M7609 cells (3rd to 5th day after transfection, stained images (FIG. 9)) is recorded as “TUNEL-positive cells, that is, apoptosis, was observed”.

The values are drawn from patent US20140315975A1, “APOPTOSIS-INDUCING AGENT” (NITTO DENKO CORPORATION, priority 2011, published 2014).
